Entries after “also recorded” stand apart in the source; their conditions may differ.
How the values were obtained:
[1] = test system: widely metastatic renal cancer; assay: Case report: patient with metastatic renal cancer
[2] = cited from earlier work
[3] = 25-50 grams daily, greater than 1 year, patients with renal tubular acidosis and sickle cell anemia; cited from earlier work
[4] = test system: spontaneous and experimental metastases; conditions: chronic consumption of sodium bicarbonate solution; cited from earlier work
[5] = high doses; cited from earlier work
[6] = test system: luciferase-expressing PC3M prostate cancer cells; assay: In vivo experimental lung metastasis model, IEPA in drinking water; design: species or system mice
Procedure: FIG. 10 illustrates (A) the chemical structure of IEPA and (B) an experimental timetable. For the experiment mice (n=10) were started on 200 mM IEPA, or tap water (n=10) at time 0. Four days later 5×10^6 PC3M cells were injected intravenously in to the mice. Images were acquired weekly, and animal were euthanized at week 6 post-injections
Mice were imaged in a ventral view weekly for 6 weeks using the in vivo Imaging System (IVIS, Xenogen).
A region of interest (ROI) was manually selected over the signal intensity. The area of the ROI was kept constant and the intensity was recorded as maximum [photons/sec].
In these experiments, 10 mice were provided with ad libidum 200 mM of 2-imidazole-1-yl-3-ethoxycarbonylpropionic acid (IEPA) in their drinking water and 10 mice were maintained on water.
Four days after initiation of therapy, all animals were injected with luciferase-expressing PC3M prostate cancer cells. […] NMR in biomedicine 2002; 15(2):114-9; van Sluis R, et al., In vivo imaging of extracellular pH using 1H MRSI. Magn Reson Med 1999; 41(4):743-50].

[7] = self-administered 40 grams of NaHCO3 daily, scans Dec. 5, 2007 and Apr. 18, 2008

SMILES: CCN(CC)CCNC(=O)c1c(C)[nH]c(/C=C2\C(=O)Nc3ccc(F)cc32)c1C [Sutent]
- tumor response ([1]; first line treatment of liver metastatic disease): the tumor progressed

SMILES: C[N+](C)(C)CCN [cholamine chloride]
- pKa [2]: 7.1

SMILES: O=C([O-])O.[Na+] [NaHCO3, sodium bicarbonate]
- adverse effects on chronic administration [3]: without adverse affects
- tolerability ([1]; "very high" bicarbonate administration for nearly 1 year): without complication
- duration of stable tumor ([1]; person, approximately 60 grams of bicarbonate in water daily with vitamins, supplements, no conventional therapy): 10 months
- central necrosis of tumors on follow-up CT scan [1, 7]: no longer present
- liver lesions on CT scans [1, 7]: some of the liver lesions have increased in size, some have decreased in size, and some have remained stable
- spontaneous and experimental metastases [4]: inhibited

SMILES: CCOC(=O)CC(C(=O)O)n1ccnc1 (stereo not drawn) [IEPA, 2-imidazole-1-yl-3-ethoxycarbonylpropionic acid]
- toxicity in vivo [5]: non-toxic at high doses
- animal weight / weight gain and grooming behavior vs controls ([6]; 200 mM IEPA in drinking water): not different from controls
- lung metastases compared to control group ([6]; 200 mM IEPA in drinking water from 4 days before i.v. injection of 5×10^6 PC3M cells, weekly imaging for 6 weeks, p<0.02): significantly fewer lung metastases; also recorded: significantly inhibits lung metastasis
- mean in vivo photon count, whole animal and lungs, vs tap water group ([6]; 200 mM IEPA in drinking water, p<0.002 Wilcoxon two sample test): significantly different

SMILES: NCCCC[C@H](N)C(=O)O [free-base lysine, L-lysine]
- pKa1 ([2]; L-lysine with three pKa's): 2.20
- pKa2 ([2]; L-lysine with three pKa's): 8.90
- pKa3 ([2]; L-lysine with three pKa's): 10.28

Reference: patent US10258607B2, “Method of increasing intratumoral pHe and reducing acid-mediated invasion” (H. Lee Moffitt Cancer Center and Research Institute, Inc., priority 2009, dated 2019)
